System: SW480
Assay: drug sensitivity score (DSS, integrated dose-response area); higher = more sensitive (stronger viability reduction); extreme values may be limits of the assay
In short: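 The drug sensitivity score is the integrated area under a fitted non-linear dose–response model. It was derived from SW480 cells with doxycycline-inducible control or SND1-targeting shRNA, induced with 0.1 µg/mL doxycycline for 7 days and plated at 1000 cells per well on 384-well plates of 525 commercially available small-molecule inhibitors at five concentrations. CellTiter-Glo measured viability after 72 h.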

[1] = shRNA: SND1 shRNA1 (SND1 silenced)
[2] = shRNA: control shRNA (non-targeting)
[3] = shRNA: SND1 shRNA2 (SND1 silenced)

## N.N.[Cl][Pt][Cl] [Cisplatin]
[1]
  drug sensitivity score: 8.1 DSS
[2]
  drug sensitivity score: 9.2 DSS

## Nc1nc(Cl)nc2c1ncn2[C@H]1C[C@H](O)[C@@H](CO)O1 [Cladribine]
[1]
  drug sensitivity score: 2.4 DSS
[3]
  drug sensitivity score: 0 DSS
[2]
  drug sensitivity score: 0.5 DSS

## Nc1nc(Cl)nc2c1ncn2[C@@H]1O[C@H](CO)[C@@H](O)[C@@H]1F [Clofarabine]
[1]
  drug sensitivity score: 8.4 DSS
[3]
  drug sensitivity score: 0.7 DSS
[2]
  drug sensitivity score: 6.5 DSS

## CCN(CC)CCOc1ccc(C(=C(Cl)c2ccccc2)c2ccccc2)cc1 [Clomifene]
[1]
  drug sensitivity score: 7 DSS
[3]
  drug sensitivity score: 5.3 DSS
[2]
  drug sensitivity score: 6.1 DSS

## O=C(c1ccc(F)c(F)c1Nc1ccc(I)cc1F)N1CC(O)([C@@H]2CCCCN2)C1 [Cobimetinib]
[1]
  drug sensitivity score: 13.3 DSS
[2]
  drug sensitivity score: 7.7 DSS

## COc1c(OCCCN2CCOCC2)ccc2c1N=C(NC(=O)c1cnc(N)nc1)N1CCN=C21 [Copanlisib]
[1]
  drug sensitivity score: 4 DSS
[3]
  drug sensitivity score: 0.3 DSS
[2]
  drug sensitivity score: 0 DSS

## CC1(COc2ccc3c(c2)ncn3-c2ccc3cccc(N4CCC(N)CC4)c3n2)COC1 [Crenolanib]
[1]
  drug sensitivity score: 11.9 DSS
[3]
  drug sensitivity score: 11.7 DSS
[2]
  drug sensitivity score: 13 DSS

## C[C@@H](Oc1cc(-c2cnn(C3CCNCC3)c2)cnc1N)c1c(Cl)ccc(F)c1Cl [Crizotinib]
[1]
  drug sensitivity score: 0.6 DSS
[3]
  drug sensitivity score: 0.2 DSS
[2]
  drug sensitivity score: 2.9 DSS

## O=P1(N(CCCl)CCCl)NCCCO1 (stereo unspecified) [Cyclophosphamide]
[1]
  drug sensitivity score: 0 DSS
[3]
  drug sensitivity score: 0 DSS
[2]
  drug sensitivity score: 0 DSS

## Nc1ccn([C@@H]2O[C@H](CO)[C@@H](O)[C@@H]2O)c(=O)n1 [Cytarabine]
[1]
  drug sensitivity score: 5.4 DSS
[3]
  drug sensitivity score: 0 DSS
[2]
  drug sensitivity score: 3.6 DSS

## CC(C)(C)c1nc(-c2cccc(NS(=O)(=O)c3c(F)cccc3F)c2F)c(-c2ccnc(N)n2)s1 [Dabrafenib]
[1]
  drug sensitivity score: 0 DSS
[2]
  drug sensitivity score: 0 DSS

## CN(C)/N=N/c1[nH]cnc1C(N)=O [Dacarbazine]
[1]
  drug sensitivity score: 0 DSS
[3]
  drug sensitivity score: 1.9 DSS
[2]
  drug sensitivity score: 0.7 DSS

## COc1cc2ncnc(Nc3ccc(F)c(Cl)c3)c2cc1NC(=O)/C=C/CN1CCCCC1 [Dacomitinib]
[1]
  drug sensitivity score: 3.3 DSS
[3]
  drug sensitivity score: 7 DSS
[2]
  drug sensitivity score: 10.2 DSS

## Cc1c2oc3c(C)ccc(C(=O)N[C@@H]4C(=O)N[C@H](C(C)C)C(=O)N5CCC[C@H]5C(=O)N(C)CC(=O)N(C)[C@@H](C(C)C)C(=O)O[C@@H]4C)c3nc-2c(C(=O)N[C@@H]2C(=O)N[C@H](C(C)C)C(=O)N3CCC[C@H]3C(=O)N(C)CC(=O)N(C)[C@@H](C(C)C)C(=O)O[C@@H]2C)c(N)c1=O [Dactinomycin]
[1]
  drug sensitivity score: 24.3 DSS
[3]
  drug sensitivity score: 24 DSS
[2]
  drug sensitivity score: 26.8 DSS

## Cn1c(=O)n(-c2ccc(C(C)(C)C#N)cc2)c2c3cc(-c4cnc5ccccc5c4)ccc3ncc21 [Dactolisib]
[1]
  drug sensitivity score: 17.8 DSS
[3]
  drug sensitivity score: 17.8 DSS
[2]
  drug sensitivity score: 11.3 DSS

## CO[C@@H](C(=O)N1Cc2[nH]nc(NC(=O)c3ccc(N4CCN(C)CC4)cc3)c2C1)c1ccccc1 [Danusertib]
[1]
  drug sensitivity score: 6.5 DSS
[3]
  drug sensitivity score: 4.7 DSS
[2]
  drug sensitivity score: 4.9 DSS

## O=C(/C=C/c1cccnc1)NCCCCC1CCN(C(=O)c2ccccc2)CC1 [Daporinad]
[1]
  drug sensitivity score: 28.1 DSS
[2]
  drug sensitivity score: 27.8 DSS

## CCN(CC)CCN(Cc1ccc(-c2ccc(C(F)(F)F)cc2)cc1)C(=O)Cn1c(SCc2ccc(F)cc2)nc(=O)c2c1CCC2 [Darapladib]
[1]
  drug sensitivity score: 0.1 DSS
[3]
  drug sensitivity score: 0 DSS
[2]
  drug sensitivity score: 5.8 DSS

## Cc1nc(Nc2ncc(C(=O)Nc3c(C)cccc3Cl)s2)cc(N2CCN(CCO)CC2)n1 [Dasatinib]
[1]
  drug sensitivity score: 0.5 DSS
[3]
  drug sensitivity score: 6.2 DSS
[2]
  drug sensitivity score: 2.1 DSS

## COc1cccc2c1C(=O)c1c(O)c3c(c(O)c1C2=O)C[C@@](O)(C(C)=O)C[C@@H]3O[C@H]1C[C@H](N)[C@H](O)[C@H](C)O1 [Daunorubicin]
[1]
  drug sensitivity score: 9.5 DSS
[3]
  drug sensitivity score: 7.3 DSS
[2]
  drug sensitivity score: 10 DSS

From the supplement of paper PMC9265050, “Inhibition of RNA Binding in SND1 Increases the Levels of miR-1-3p and Sensitizes Cancer Cells to Navitoclax” (Cancers, 2022)
